Measured values from US20110306580A1 (DONG WHA PHARMACEUTICAL CO ., LTD., priority 2009, published 2011).

System: ROS17/2.8 cells
Assay: Cell growth of ROS17/2.8 cells by the MTT method (formed formazan)
Format: cell-based, rat
Conditions: for activity at 0.02 µM: Rattus norvegicus, 2×10^−5M Test Compound solution diluted 1000 fold, read-out: Amount of formed formazan, Solution 8 (Test Compound alone); for activity at 0.02 µM / Amount of formed formazan, Solution 10 (a group of a drug combination): percentage to Solution 7 addition group, about 48 hours, average ± standard deviation of four wells; for Relative index of Solution 10 (a group of a drug combination) / Amount of formed formazan, Solution 10 (a group of a drug combination): Test Compound in combination with 1α,25-dihydroxyvitamin D3; for Relative index of Solution 10 (a group of a drug combination) / Relative index of Solution 8 (Test Compound alone): amount of formed formazan, Solution 7 = 1.00
Procedure: 100 μL of a 10% FCS-αMEM comprising either DMSO and ethanol (referred to as Solution 7, hereinafter), a Test Compound solution and ethanol (referred to as Solution 8, hereinafter), a 1α,25-dihydroxyvitamin D3 solution and DMSO (referred to as Solution 9, hereinafter) or a Test Compound solution and the 1α,25-dihydroxyvitamin D3 solution (referred to as Solution 10, hereinafter) was dispensed. The ROS17/2.8 cells were inoculated to a medium at a density of 5×10^3 cells/100 μL/well. After culture of the cells for about 48 hours, the effect of Test Compound and 1α,25-dihydroxyvitamin D3 on the cell growth of the ROS17/2.8 cells was evaluated using the MTT method. Namely, after culture of the cells for about 44 hours, an MTT solution (3-[4,5-dimethylthiazol-2-yl]-2,5-diphenyltetrazolium bromide 2 mg/mL) was added in an amount of 25 μL/well, and the cells were further cultured for four hours. After the medium was removed, DMSO was added in an amount of 100 μL/well so as to dissolve the formed formazan. The amount of the formed formazan was determined by measuring the absorbance (at 560 nm) of the solution by a microplate reader.
The 10% FCS-αMEM comprising Solution 7 was prepared by diluting DMSO by 1000 fold with the 10% FCS-αMEM, and diluting ethanol by 10000 fold with the 10% FCS-αMEM. The 10% FCS-αMEM comprising Solution 8 was prepared by diluting a 2×10^−5M Test Compound solution by 1000 fold with the 10% FCS-αMEM, and diluting ethanol by 10000 fold with the 10% FCS-αMEM. The 10% FCS-αMEM comprising Solution 9 was prepared by diluting 2×10^−3M 1α,25-dihydroxyvitamin D3 solution by 10000 fold with the 10% FCS-αMEM, and diluting DMSO by 1000 fold with the 10% FCS-αMEM. The 10% FCS-αMEM comprising Solution 10 was prepared by diluting a 2×10^−5M Test Compound solution by 1000 fold with the 10% FCS-αMEM, and diluting 2×10^−3M 1α,25-dihydroxyvitamin D3 solution by 10000 fold with the 10% FCS-αMEM.
The amount of the formed formazan in each solution addition group was obtained in terms of a percentage to the average value of the amounts of formed formazan in four wells in a Solution 7 addition group. All the determined values were shown in terms of the average value±standard deviation of the four wells of each solution addition group.

Row | Compound | activity at 0.02 µM [%] | Relative index of Solution 10 (a group of a drug combination) | Amount of formed formazan, Solution 10 (a group of a drug combination) | Relative index of Solution 8 (Test Compound alone)
1 | N/C(=N\O)c1ccc(OCCCCCOc2ccc(-c3nc(-c4cccnc4)sc3Cc3ccccc3)cc2)cc1 [Compound 2, N-hydroxy-4-{5-[4-(5-benzyl-2-(pyridin-3-yl)-1,3-thiazol-4-yl]phenoxy]pentoxy}benzamidine] | 103 ± 3.1 | 1.17 | 117 ± 2.6 # % | 1.03
2 | Cc1nc(-c2ccc(OCCCCCOc3ccc(/C(N)=N/O)cc3)cc2)c(CCCl)s1 [Compound 3, N-hydroxy-4-{5-[4-(5-(2-chloroethyl)-2-methyl-1,3-thiazol-4-yl)phenoxy]pentoxy}benzamidine] | 105 ± 3.1 | 1.12 | 112 ± 2.7 # % | 1.05
3 | CCc1nc(-c2ccc(OCCCCCOc3ccc(/C(N)=N/O)cc3)cc2)c(CC2CCCC2)s1 [Compound 4, N-hydroxy-4-{5-[4-(5-cyclopentylmethyl-2-ethyl-1,3-thiazol-4-yl)phenoxy]pentoxy}benzamidine] | 105 ± 1.9 | 1.12 | 112 ± 1.6 # % | 1.05
4 | C=Cc1sc(C)nc1-c1ccc(OCCCCCOc2ccc(/C(N)=N/O)cc2)cc1 [Compound 5, N-hydroxy-4-{5-[4-(5-vinyl-2-methyl-1,3-thiazol-4-yl)phenoxy]pentoxy}benzamidine] | 100 ± 3.7 | 1.10 | 110 ± 2.4 # % | 1.00
5 | CNc1nc(-c2ccc(OCCCCCOc3ccc(/C(N)=N/O)cc3)cc2)c(CC2CCCC2)s1 [Compound 6, N-hydroxy-4-{5-[4-(5-cyclopentylmethyl-2-methylamino-1,3-thiazol-4-yl)phenoxy]pentoxy}benzamidine] | 103 ± 2.5 | 1.13 | 113 ± 1.7 ## % | 1.03
6 | Cc1sc(N(C)CCO)nc1-c1ccc(OCCCCCOc2ccc(/C(N)=N/O)cc2)cc1 [Compound 7] | 109 ± 3.2 | 1.20 | 120 ± 2.3 ## % | 1.09
7 | Cc1sc(N(C)Cc2ccccc2)nc1-c1ccc(OCCCCCOc2ccc(/C(N)=N/O)cc2)cc1 [Compound 8, N-hydroxy-4-{5-[4-(2-benzylmethylamino-5-methyl-1,3-thiazol-4-yl)phenoxy]pentoxy}benzamidine] | 102 ± 4.9 | 1.15 | 115 ± 2.3 ## % | 1.02
8 | Cc1sc(N(C)Cc2cccnc2)nc1-c1ccc(OCCCCCOc2ccc(/C(N)=N/O)cc2)cc1 [Compound 9, N-hydroxy-4-{5-[4-(5-methyl-2-(methyl(pyridin-3-ylmethyl)amino)-1,3-thiazol-4-yl)phenoxy]pentoxy}benzamidine] | 108 ± 2.3 | 1.20 | 120 ± 2.1 ## % | 1.08
9 | CCc1sc(N(C)Cc2ccccc2)nc1-c1ccc(OCCCCCOc2ccc(/C(N)=N/O)cc2)cc1 [Compound 10, N-hydroxy-4-{5-[4-(2-benzylmethylamino-5-ethyl-1,3-thiazol-4-yl)phenoxy]pentoxy}benzamidine] | 99 ± 2.5 | 1.11 | 111 ± 1.3 # % | 0.99
10 | CC(C)c1sc(N(C)Cc2cccnc2)nc1-c1ccc(OCCCCCOc2ccc(/C(N)=N/O)cc2)cc1 [Compound 12, N-hydroxy-4-{5-[4-(5-isopropyl-2-(methyl(pyridin-3-yl-methyl)amino)-1,3-thiazol-4-yl)phenoxy]pentoxy}benzamidine] | 105 ± 3 | 1.15 | 115 ± 4.3 # % | 1.05
11 | CCCCc1sc(N(C)CCN2CCOCC2)nc1-c1ccc(OCCCCCOc2ccc(/C(N)=N/O)cc2)cc1 [Compound 13, N-hydroxy-4-{5-[4-(5-butyl-2-(methyl(2-(4-morpholino)ethyl)amino)-1,3-thiazol-4-yl)phenoxy]pentoxy}benzamidine] | 103 ± 5.2 | 1.13 | 113 ± 2.1 # % | 1.03
12 | CCCN(CCC)c1nc(-c2ccc(OCCCCCOc3ccc(/C(N)=N/O)cc3)cc2)c(CC2CCCC2)s1 [Compound 14, N-hydroxy-4-{5-[4-(5-cyclopentylmethyl-2-dipropylamino-1,3-thiazol-4-yl)phenoxy]pentoxy}benzamidine] | 103 ± 2.5 | 1.13 | 113 ± 1.3 # % | 1.03
13 | CN(CCN1CCOCC1)c1nc(-c2ccc(OCCCCCOc3ccc(/C(N)=N/O)cc3)cc2)c(C2CCCC2)s1 [Compound 15, N-hydroxy-4-{5-[4-(5-cyclopentyl-2-(methyl(2-(4-morpholino)ethyl)amino)-1,3-thiazol-4-yl)phenoxy]pentoxy}benzamidine] | 103 ± 3 | 1.15 | 115 ± 0.8 ## % | 1.03
14 | CCCN(CCC)c1nc(-c2ccc(OCCCCCOc3ccc(/C(N)=N/O)cc3)cc2)c(C(C)C)s1 [Compound 16, N-hydroxy-4-{5-[4-(5-isopropyl-2-dipropylamino-1,3-thiazol-4-yl)phenoxy]pentoxy}benzamidine] | 107 ± 1.3 | 1.18 | 118 ± 3.7 # % | 1.07
15 | CC(C)c1sc(N(C)C)nc1-c1ccc(OCCCCCOc2ccc(/C(N)=N/O)cc2)cc1 [Compound 17, N-hydroxy-4-{5-[4-(5-isopropyl-2-dimethylamino-1,3-thiazol-4-yl)phenoxy]pentoxy}benzamidine] | 97 ± 1.3 | 1.13 | 113 ± 1.7 # % | 0.97
16 | Cc1nc(-c2ccc(OCCCCC(=O)Nc3ccc(/C(N)=N/O)cc3)cc2)c(C(C)C)s1 [Compound 18, N-hydroxy-4-{5-[4-(5-isopropyl-2-methyl-1,3-thiazol-4-yl)phenoxy]pentanoylamino}benzamidine] | 106 ± 5 | 1.15 | 115 ± 3.0 ## % | 1.06
